No end group written: not given here. *: point of attachment. Biotin = O=C1N[C@H]2[C@H](CS[C@H]2CCCCC(=O)*)N1
Experiments:
B cell surface CLIP = B cell surface CLIP after 2-Deoxyglucose and dichloroacetate (FIG. 4); assay type: cell-based
[1] = background statement; cited from earlier work
mouse splenic B cells = assay: TLR activation of mouse splenocytes in vitro, ectopic CLIP on B cells (15G4-FITC versus B220); assay type: cell-based; conditions: for exogenous CLIP expression on activated mouse B cells: treatment in vitro with toll ligand
Description: Mouse splenocytes or T-depleted splenocytes were red cell depleted using Geys Solution, and cells were counted. For T-depleted B cell preparations, B cells were separated by discontinuous Percoll (Pharmacia LKB Biotechnology, Piscataway, N.J.) gradients (13). Those cells layering at the 1.079/1.085 g/ml interface (1.079<ρ≦1.085) are designated throughout as resting B cells. Cells layering at the BSS/1.066 g/ml interface (ρ≦1.066) are designated as activated. Viable cells from this latter interface were isolated using Lympholyte-M (Cedarlane Laboratories, Ltd., Hornby, Ontario, Canada). Cells from each layer were harvested, washed, and resuspended at 10^7 cells/ml in PBS containing 5% fetal calf serum.
Total splenocytes, from either B6.129, Ii-deficient, or H2M-deficient mice were cultured with LPS for 24, 48, 72, or 96 hours as indicated. Cells were harvested and stained by two-color fluorescence using 15G4-FITC anti-mouse CLIP/I-A^6 versus anti-mouse B220 PE.
Freshly isolated splenocytes, single cell suspensions of lymph node cells, resting (or activated) B cells, or primed B cells were isolated from B6.129, Ii-deficient, or H2M-deficient mice and cultured in 24 well plates in complete RPMI medium, with or without the appropriate Toll ligand, at 10^6 cells/ml. Cells were cultured for 24, 48, 72, 96, or up to 144 hours. Cells were harvested and stained by flow cytometric analysis using either a Beckman Coulter Excel or a Beckman Coulter FC500 flow cytometer. Cells were stained by two-color fluorescence using 15G4-FITC anti-mouse CLIP/I-A^b versus anti-mouse B220 PE. For co-culture experiments (5×10^5) were combined with T cells (5×10^4) in 24 well plates in complete medium, with or without the appropriate antigen. Experiments with 3A9, 2A11 or A6.A2 employed 3 mg/ml tryptic digest of HEL as a source of pre-processed antigen, i.e., peptide. Cultures were incubated overnight at 37° C. in a humidified 5% CO2, 95% air incubator.
(§1) Multi-parameter flow cytometric analysis for the fluorescent detection of ectopic CLIP, mouse B220, human CD19 or CD20, human CLIP, human HLA-DR, and human CLIP or apoptosis were performed using a Beckman Coulter Excel or a Beckman Coulter FC500 flow cytometer (Beckman Coulter, Hialeah, Fla.). Mouse splenic cells were cultured in complete RPMI for the times indicated. Resting, primed, or activated B cells were cultured in the presence of T cells (vide supra). At the end of 16 h of culture, the cells were harvested and washed. Ethidium bromide (detected by red fluorescence) was added immediately before analysis of each tube. The cells were analyzed by first gating using forward vs. side scatter then using increased fluorescence as a measure of detection of the indicated cell surface antigens.

[2] = system: human B cells from peripheral blood mononuclear cells (PBMC); assay: Human PBMC culture with toll ligands with or without peptides, CLIP on B cells; assay type: cell-based; conditions: for level of CLIP per B cell / percentage of CLIP+ B cells: PBMC of two donors cultured with R848 for 48 hours
Experimental: PBMC were prepared from a total of seven adult normal donors, five for examining the effects of TLR binding on the percentage of ectopic CLIP^+ B cells and changes in mean fluorescence intensity of the CLIP staining resulting from TLR stimulation with CpG-ODN, LPS, Pam-3-Cys, and Poly I:C. For these experiments, the cells were cultured at approximately 1×10^6 per ml with each TLR binding ligand added at 5 μg per ml. The other two donors were tissue typed for HLA phenotypes, were cultured with the TLR7/8 agonist CL097 for 48 hours with and without the computationally predicted competitive peptide or the scrambled analogue for 48 hours. For both experiments at the end of the appropriate culture period, cells were harvested and stained for cell surface CLIP using anti-human CLIP-FITC versus MHC class II HLA-DR-PE Cy5, or anti-human CLIP-FITC versus anti-human CD19-PE. Cells were analyzed using either a BD FacsCalibur, for the five samples, or a Coulter FC500 for the two tissue typed samples.
as §1
Because CLIP affinity for MHC class II molecules is allele dependent, the MHCPred (http://www.jenner.ac.uk/MHCPred/) and NetMHC (http://www.cbs.dtu.dk/services/NetMHC/) databases was used to determine binding affinities between CLIP for molecules encoded by either mouse or human MHC alleles. […] For human studies, PBMC were collected from donors, most of whose MHC tissue types (alleles for HLA-DR, DP, DQ, HLA-A, and HLA-B) were identified. The cells were cultured in the presence or absence of the TLR7/8-binding compound R848 (CLO97, Invivogen) for 48 hours. The cells were cultured in the presence or absence of VGV-hB peptide versus a control peptide of equal length (referred to henceforth as VGV-pB, whose binding depends upon the MHC allele/polymorphism of the individual) (FIGS. 13d and 13e). […] Considering polymorphic differences in MHC alleles between the two individuals, the ability of a given peptide to replace CLIP may vary as a function of the polymorphism between the two people. Data are representative of five different experiments performed over several months.

B6.129 (H-2b) mice [3] = assay: CpG-ODN injected B6.129 mice with or without peptide (TLR-induced chronic hyperimmune activation); assay type: in vivo, mouse; conditions: CpG-ODN alone or with peptide, 48 hours
B6.129 (H-2b) mice [4] = assay: as above; assay type: in vivo, mouse
Experimental: C57Bl6 and B6.129 mice were injected with CpG-oligo-deoxynucleotide (CpG-ODN (25 μg per mouse)). After 24, 72, or 96 hours, animals were humanely killed; spleens and lymph nodes were removed. The spleens and lymph nodes were passed through nylon mesh to recover single cell suspensions, and the cells were counted. Cells were stained as indicated and analyzed flow cytometrically using a Beckman Coulter Excel or Coulter FC500 flow cytometer.
as §1
Cell death was measured either by flow cytometric detection of forward versus side scatter or by DNA fragmentation. DNA fragmentation was quantified by terminal deoxynucleotidyl transferase (TdT; Promega, Madison, Wis.)-mediated fluorescein-12-deoxyuridine triphosphate (FITC-dUTP; Boehinger Mannheim Corporation, Indianapolis, Ind.) addition to the terminal 3′-OH ends of fragmented DNA (TUNEL assay) as previously described (18). Resting B cells (1×10^6) were combined with 1×10^5 T hybridoma cells, with or without antigen, and cultured for 16-17 h. The cultures were harvested and washed twice in PBS-2% FBS at 4° C. Subsequently, cells were incubated for 30 min at 4° C. in PBS-2% FBS […] Cells were washed in PBS and fixed in 1.5% paraformaldehyde in PBS (pH 7.4) for 1 h at 4° C. Cells were thoroughly washed in PBS and were resuspended in 50 μl of a reaction mixture containing the following: 5 units TdT, 0.1-0.2 nM FITC-dUTP and 1 nM each dATP, dCTP, and dGTP in 100 mM cacodylate buffer (pH 6.8) with 1 mM CoCl2 and 0.1 mg/ml BSA. Reactions were incubated for 1 h at 37° C. and stopped by washing with 0.25 M EDTA in Tris buffer (pH 7.4). Cells were then analyzed for two color fluorescence on the FC500.
Using mouse models for quantitative analysis of TLR-induced CHA, B6.129 (H-2^b) mice were injected with CpG-ODN alone or CpG-ODN in combination with VGV-hB. […] Because the binding constant of a peptide is also function of concentration, B6.129 mice were injected with peptide; either VGV-hB or VGV-sB, ranging in dose from 0.25, 2.5, 25, and 50 micrograms of peptide per mouse, (FIGS. 14c and 14d).

[5] = system: human B cell lines, Raji and Daudi; assay: Synthetic peptide binding and competition with CLIP on B cell lines (anti-human CLIP Fitc versus Streptavidin); assay type: cell-based; conditions: for cell surface bound CLIP (Fitc-Anti-CLIP): biotinylated competing peptide, 50 microMolar
Description: Based on a computational model comparing the peptide content of TNP mixture and identifying those peptides that would have the likeliest ability to compete for the peptide/antigen binding site for MHC class II (human HLA-DR, DP, and DQ), several peptide candidates were synthesized and examined for activity. The purpose of the study was to determine if synthetic peptides can compete for binding with CLIP peptides as measured with either Fitc anti-human CLIP antibody or, comparatively in the case of biotinylated peptides, with Streptavidin.
Cell Culture Conditions: The Raji and Daudi cell lines were purchased from American Type Culture Collection, were thawed, and grown in RPMI 1640 medium supplemented with standard supplements, including 10% fetal calf serum, gentamycin, penicillin, streptomycin, sodium pyruvate, HEPES buffer, 1-glutamine, and 2-ME.
Protocol: Cells were plated into a 12 well plate with 3 mls total volume containing approximately 1.5×10^6/well for Daudi cells and 3.0×10^6/well for Raji cells. Treatment groups included no treatment as control; MKN 3 and MKN 5 at 50 microMolar final concentration based on the reported molarity of the synthesized compounds.
The cells were incubated at 37° C. in an atmosphere containing 5% CO2 and approximately 92% humidity. The cells were incubated for 4 and 24 hours. At each time point, the cells from that experimental time were harvested and stained for flow cytometric analysis of cell surface expression of CLIP (MHC Class II invariant peptide, human) by using the commercially available (Becton/Dickinson/PHarmingen) anti-human CLIP Fitc. Catalogue #555981 versus Streptavidin.
Harvested cells were stained using standard staining procedure that called for a 1:100 dilution of Fitc-anti-human CLIP or isotype control versus 1:200 dilution of the commercially prepared Streptavidin. Following staining on ice for 25 minutes, cells were washed with PBS/FCS and resuspended in 100 microliters and added to staining tubes containing 400 microliters of PBS. Samples were acquired and analyzed on a Coulter Excel Flow Cytometer.
In the Histogram analyses of FIGS. 5-7 the Y axis represents cell number of the 5000 live cells versus the X axis which is a reflection of relative Fitc fluorescence versus Streptavidin-PE (eBioscience, Cat. #12-4317) that will bind with high affinity to cell-bound biotinylated peptides. The distance between the histogram from the isotype control staining versus the histogram reflecting the specific stain and is a measure of level of cell surface CLIP or the biotinylated peptide when stained with Streptavidin on a population of live Raji or Daudi cells as indicated.

[6] = peptide in combination with TLR 9 stimulation (CpG-ODN)

O=CC[C@@H](O)[C@H](O)[C@H](O)CO [2-Deoxyglucose]
B cell surface CLIP (B cell surface CLIP): affects B cell surface CLIP

C=CC[C@@H]1/C=C(\C)C[C@H](C)C[C@H](OC)[C@H]2O[C@@](O)(C(=O)C(=O)N3CCCC[C@H]3C(=O)O[C@H](/C(C)=C/[C@@H]3CC[C@@H](O)[C@H](OC)C3)[C@H](C)[C@@H](O)CC1=O)[C@H](C)C[C@@H]2OC [FK506, tacrolimus]
immunosuppressive activity relative to cyclosporin [1]: 10-100 times

CCOCc1nc2c(N)nc3ccccc3c2n1CC(C)(C)O [R848, imidazoquinoline resiquimod]
exogenous CLIP expression on activated mouse B cells (mouse splenic B cells): resulted in exogenous CLIP expression

(S)-(2,3-bis(palmitoyloxy)-(2RS)-propyl)-N-palmitoyl-(R)-Cys-(S)-Ser(S)-Lys4-OH, trihydrochloride [Pam3Cys]
exogenous CLIP expression on activated mouse B cells (mouse splenic B cells): resulted in exogenous CLIP expression

ANSGIIGDITEEVGGQY [VGV-pB]
level of CLIP per B cell [2]: reduced the frequency of CLIP^+ B cells and the level of CLIP per cell in one individual but not the other | percentage of CLIP+ B cells [2]: reduced the frequency of CLIP^+ B cells and the level of CLIP per cell in one individual but not the other

FRIMAVLAS [VGV-hB]
splenic B lymphocytes and splenic CLIP+ B cells (B6.129 (H-2b) mice [3]): reversed the effects of CPG alone | reversal of CpG-ODN activation incl. percent of CLIP+ B cells from total spleen (peptide titration) (B6.129 (H-2b) mice [4]; 0.25, 2.5, 25, and 50 micrograms of peptide per mouse): reversed the effecs of CpG-ODN activation | CD4+ FoxP3+ Tregs in the lymph nodes (B6.129 (H-2b) mice [4]; CpG-ODN injection in vivo, without or with peptide): reversible | effect of CpG-ODN on total cell numbers, absolute numbers of B cells, and CLIP+ B cell distribution between spleen and lymph node (B6.129 (H-2b) mice [4]; CpG-ODN with peptide, 24, 72, 96 hours): reduced | CD8+ T cells (B6.129 (H-2b) mice [4]; CpG-ODN with peptide, interpretation in discussion): promotes expansion | B cell death (B6.129 (H-2b) mice [4]; [6]): increased B cell death | number of live CD4+ T cells (B6.129 (H-2b) mice [4]; [6]): moderate increase | level of CLIP per B cell [2]: reduced the percentage of CLIP^+ B cells and the level of CLIP per B cell to pre-treatment levels | percentage of CLIP+ B cells [2]: reduced the percentage of CLIP^+ B cells and the level of CLIP per B cell to pre-treatment levels

FRIMAVLASSGGGANSGFRIMAVLASGGQY [MKN.3]
cell surface bound CLIP (Fitc-Anti-CLIP) ([5]; 4 hours): small decreases | cell surface bound CLIP (Fitc-Anti-CLIP) ([5]; 24 hours): significant decreases

SGGGKALVQNDTLLQVKG (not fully specified (N-terminus); also: biotinylated, position not given here) [MKN.5]
cell surface bound CLIP (Fitc-Anti-CLIP) ([5]; 4 hours): small decreases | cell surface bound CLIP (Fitc-Anti-CLIP) ([5]; 24 hours): significant decreases

SGGGSKMRMATPLLMQALY (Biotin-SGGGSKMRMATPLLMQALY) [MKN.1]
cell surface CLIP and CD74 levels ([5]; Raji or Daudi cells): alters cell surface CLIP and CD74 levels

lipopolysaccharide [LPS]
exogenous CLIP associated with MHC class II on splenic B cells (mouse splenic B cells; in vitro stimulation of resting mouse splenocytes, 0 to 72 hours): time-dependent increase | exogenous CLIP expression on activated mouse B cells (mouse splenic B cells): resulted in exogenous CLIP expression | ectopic CLIP on human B cells ([2]; PBMC from five healthy donors, toll ligand 5 ug per ml, 24 hours): Statistically significant increases

polyinosinic:polycytidylic acid [Poly I:C]
exogenous CLIP expression on activated mouse B cells (mouse splenic B cells): resulted in exogenous CLIP expression

— patent publication US20130259829A1, “CLIP INHIBITORS AND METHODS OF MODULATING IMMUNE FUNCTION” (The Regents of the University of Colorado, A Body Corporate, priority 2008, published 2013)
